Data on 33 molecules can be found in patent US12509451B2, “Heteroaryl amide inhibitors of CD38” (NAPA THERAPEUTICS LTD., priority 2020, dated 2025).

As a reminder, the IC50 is the concentration at which inhibition is half-maximal.

Experiment [1] addresses T1, recombinant mouse CD38 Protein (Mus musculus, UniProt P56528).
T1 construct: purchased R&D System
T1 sequence (P56528 1-304): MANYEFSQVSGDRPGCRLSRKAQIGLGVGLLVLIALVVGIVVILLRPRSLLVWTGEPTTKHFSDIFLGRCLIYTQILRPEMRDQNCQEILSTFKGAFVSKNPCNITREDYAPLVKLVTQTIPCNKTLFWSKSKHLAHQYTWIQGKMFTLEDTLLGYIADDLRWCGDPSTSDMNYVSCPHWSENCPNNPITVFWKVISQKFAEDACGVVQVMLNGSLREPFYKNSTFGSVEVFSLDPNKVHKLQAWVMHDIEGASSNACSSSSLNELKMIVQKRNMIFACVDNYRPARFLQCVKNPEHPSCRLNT
Kind of experiment: Fluorescence-based NAD+ hydrolase activity assay with mouse recombinant CD38 protein (Assay 5). In kind it is biochemical. Particulars: read-out: Assay 5 Arithmetic mean IC50. As for the experimental part:
This protocol was modified from the following references: Muller et al. (1983); Schultz et al. (2018); Matalonga et al. (2017); and de Oliveira et al. (2018), supra.
NAD+ hydrolase activity of the mouse recombinant CD38 protein treated with test compounds was measured using a fluorescence-based assay. Briefly, recombinant mouse CD38 Protein (R&D System) was resuspended in 44 μl/well of Sucrose-Tris Buffer (Sucrose 0.25 M, Tris pH 7.4 40 mM) and plated in a 96 well black plate (CORNING) at a density of 2.5 ng/well.
Each test compound was received in a powder state and dissolved in DMSO as a 25 mM stock solution. Each test compound was serially diluted in order to generate a dose-response curve. The dilution series of each test compound in DMSO was prepared at 50 times the concentrations to be assayed. Each test compound was diluted to generate a 5-fold dilution series of 8 concentrations from 20 μM to 0.256 nM in order to assay 8 final concentrations ranging from 400 nM to 25.6 pM. One μl of the 50× concentration compound series was added to each well of the plate containing 2.5 ng of protein in Sucrose-Tris buffer.
Each plate had the following intra plate controls: 3 wells containing cells treated with vehicle only (DMSO), 3 wells of cells treated with the reference compounds 78c at a final concentration of 50 nM and 2 wells containing only Sucrose-Tris buffer (used as a background value).
(§1) The reaction was started adding nicotinamide 1,N^6-etheno-adenine dinucleotide (Sigma Aldrich) to reach a final concentration of 80 µM. The samples were excited at 321-15 nm and the emission of fluorescence was measured at 410-20 nm at 37° C. every minute for 1 hr in a Clariostar Microplate® reader (BMG LABTECH). NAD+ hydrolase activity was calculated as the slope of the linear portion of the fluorescence-time curve using the MARS data analysis software (BMG LABTECH). The data were uploaded in the Collaborative Drug Design (CDD) Software and for each compound the IC50 was calculated by the software. Each compound was tested in 3 independent experiments on 3 separate days to establish the reproducibility of the results. For each plate, the z-factor was also calculated as a plate quality using the CDD software.

The target of experiment [2] is T2, recombinant human CD38 Protein (Homo sapiens, UniProt P28907).
T2 construct: purchased R&D System
T2 sequence (P28907 1-300): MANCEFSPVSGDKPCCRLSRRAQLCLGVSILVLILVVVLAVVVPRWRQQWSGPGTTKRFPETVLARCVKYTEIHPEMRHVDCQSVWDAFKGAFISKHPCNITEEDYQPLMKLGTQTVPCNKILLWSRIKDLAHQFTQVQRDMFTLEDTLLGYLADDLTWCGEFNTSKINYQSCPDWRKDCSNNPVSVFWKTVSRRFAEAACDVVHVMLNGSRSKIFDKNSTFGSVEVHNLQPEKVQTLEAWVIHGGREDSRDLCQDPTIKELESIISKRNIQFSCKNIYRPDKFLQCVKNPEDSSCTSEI
Kind of experiment: Fluorescence-based NAD+ hydrolase activity assay with human recombinant CD38 protein (Assay 3). Particulars: read-out: Assay 3 Arithmetic mean IC50. The experiment is classed as biochemical. On the procedure: This protocol was modified from the following references (Muller et al. (1983); (Schultz et al. (2018); (Matalonga et al. (2017); and de Oliveira et al. (2018), supra.
NAD+ hydrolase activity of the human recombinant CD38 protein treated with test compounds was measured using a fluorescence-based assay. Briefly, recombinant human CD38 Protein (R&D System) was resuspended in 44 μl/well of Sucrose-Tris Buffer (Sucrose 0.25 M, Tris pH 7.4 40 mM) and plated in a 96-well black plate (CORNING) at a density of 10 ng/well.
Each test compound was received in a powder state and dissolved in DMSO as a 25 mM stock solution. Each test compound was serially diluted in order to generate a dose-response curve. The dilution series of each test compound in DMSO was prepared at 50× the concentrations to be assayed. Each test compound was diluted to generate a 5-fold dilution series of 8 concentrations from 20 μM to 0.256 nM in order to assay 8 final concentrations ranging from ranging from 400 nM to 25.6 pM. One μl of the 50× concentration compound series was added to each well of the plate containing 10 ng protein in Sucrose-Tris buffer.
as §1, with “Clariostar® microplate” for “Clariostar Microplate®”, “Each compound was tested in 3 independent experiments on 3 separate days to establish the reproducibility of the results.” left out

In the case of `CNC(=O)c1ccc(NC(=O)c2cccc(-n3ccnc3)n2)cn1` [Compound 2], the 50% inhibitory concentration (IC50) in experiment [1] and in experiment [2] was under 1 nM in each case.
Regarding `NC(=O)c1ccc(NC(=O)c2cccc(-n3ccnc3)n2)cn1` [Compound 3], the IC50 in experiment [1] and in experiment [2] was 1 to 50 nM in each case.
`Cc1cc(NC(=O)c2cccc(-n3ccnc3)n2)cc(C)n1` [Compound 7]: the 50% inhibitory concentration (IC50) is under 1 nM in experiment [1] and 1 to 50 nM in experiment [2].
Take `O=C(Nc1ccnc(F)c1)c1cccc(-n2ccnc2)n1` [Compound 8]: the IC50 in experiment [1] and in experiment [2] was 1 to 50 nM throughout.
Consider `O=C(Nc1ccc(C(F)(F)F)nc1)c1cccc(-n2ccnc2)n1` [Compound 9], for which the IC50 in experiment [1] and in experiment [2] was 1 to 50 nM throughout.
As for `Cc1cc(NC(=O)c2cccc(-n3ccnc3)n2)ccn1` [Compound 11], the IC50 in experiment [1] and in experiment [2] was 1 to 50 nM throughout.
Take `COc1cc(NC(=O)c2cccc(-n3ccnc3)n2)ccn1` [Compound 12]: the concentration for half-maximal inhibition (IC50) in experiment [1] and in experiment [2] was 1 to 50 nM in each case.
For `O=C(Nc1ccncc1)c1cccc(-n2ccnc2)n1` [Compound 13], the 50% inhibitory concentration (IC50) in experiment [1] and in experiment [2] was 1 to 50 nM in each case.
Take `Cc1ccc(NC(=O)c2cccc(-n3ccnc3)n2)cn1` [Compound 14]: the half-inhibitory concentration (IC50) in experiment [1] and in experiment [2] was 1 to 50 nM throughout.
Regarding `CC(=O)N(C)c1ccc(NC(=O)c2cccc(-n3ccnc3)n2)cn1` [Compound 15], the IC50 in experiment [1] and in experiment [2] was 1 to 50 nM throughout.
On to `CC(=O)Nc1ccc(NC(=O)c2cccc(-n3ccnc3)n2)cn1` [Compound 16], for which the IC50 in experiment [1] and in experiment [2] was 1 to 50 nM in each case.
Consider `COc1ccc(NC(=O)c2cccc(-n3ccnc3)n2)cn1` [Compound 18], for which the IC50 in experiment [1] and in experiment [2] was 1 to 50 nM each time.
With `O=C(Nc1cccnc1)c1cccc(-n2ccnc2)n1` [Compound 20], the half-inhibitory concentration (IC50) in experiment [1] and in experiment [2] was 1 to 50 nM in each case.
As to `O=C(Nc1ccc(F)nc1)c1cccc(-n2ccnc2)n1` [Compound 22], the IC50 in experiment [1] and in experiment [2] was 1 to 50 nM each time.
With `O=C(Nc1ccncn1)c1cccc(-n2ccnc2)n1` [Compound 24], the IC50 in experiment [1] and in experiment [2] was 1 to 50 nM each time.
Turning to `COC(=O)c1ccc(NC(=O)c2cccc(-n3ccnc3)n2)cn1` [Compound 27], the half-inhibitory concentration (IC50) in experiment [1] and in experiment [2] was 1 to 50 nM each time.
As to `O=C(Nc1ccnc(C(F)(F)F)c1)c1cccc(-n2ccnc2)n1` [Compound 28], the IC50 in experiment [1] and in experiment [2] was 1 to 50 nM each time.
Regarding `O=C(Nc1ccnc(C(F)(F)F)c1)c1cc(OCc2ccccc2)cc(-n2ccnc2)n1` [Compound 29, 4-(benzyloxy)-6-(1H-imidazol-1-yl)-N-[2-(trifluoromethyl)pyridin-4-yl]pyridine-2-carboxamide], the IC50 in experiment [1] was under 1 nM; in experiment [2], 1 to 50 nM.
For `O=C(Nc1ccnc(C(F)(F)F)c1)c1cc(OCC2CCOCC2)cc(-n2ccnc2)n1` [Compound 30, 6-(1H-imidazol-1-yl)-4-((tetrahydro-2H-pyran-4-yl)methoxy)-N-(2-(trifluoromethyl)pyridin-4-yl)picolinamide], in that order: under 1 nM and 1 to 50 nM.
For `COCCOc1cc(C(=O)Nc2ccnc(C(F)(F)F)c2)nc(-n2ccnc2)c1` [Compound 31, 6-(1H-imidazol-1-yl)-4-(2-methoxyethoxy)-N-(2-(trifluoromethyl)pyridin-4-yl)picolinamide], in that order: under 1 nM and 1 to 50 nM.
For `O=C(Nc1ccnc(C(F)(F)F)c1)c1cc(OC2CC2)cc(-n2ccnc2)n1` [Compound 32, 4-cyclopropoxy-6-(1H-imidazol-1-yl)-N-(2-(trifluoromethyl)pyridin-4-yl)picolinamide], in that order: 51 to 1000 nM and under 1 nM.
In the case of `CN(C)CCOc1cc(C(=O)Nc2ccnc(C(F)(F)F)c2)nc(-n2ccnc2)c1` [Compound 33], the IC50 in experiment [1] and in experiment [2] was under 1 nM in each case.
On to `CC1(Oc2cc(C(=O)Nc3ccnc(C(F)(F)F)c3)nc(-n3ccnc3)c2)COC1` [Compound 34, 6-(1H-imidazol-1-yl)-4-((3-methyloxetan-3-yl)oxy)-N-(2-(trifluoromethyl)pyridin-4-yl)picolinamide], for which the concentration for half-maximal inhibition (IC50) in experiment [1] is under 1 nM; in experiment [2], 1 to 50 nM.
For `COc1cc(C(=O)Nc2ccnc(C(F)(F)F)c2)nc(-n2ccnc2)c1` [Compound 35, 6-(1H-imidazol-1-yl)-4-methoxy-N-(2-(trifluoromethyl)pyridin-4-yl)picolinamide], in that order: under 1 nM and 1 to 50 nM.
The like results for `COc1cc(C(=O)Nc2cccnc2)nc(-n2ccnc2)c1` [Compound 36] were, in that order, 1 to 50 nM and 1 to 50 nM.
The like results for `COc1cc(C(=O)Nc2ccnc(C(F)(F)F)c2)nc(-n2ccnc2)n1` [Compound 37, 2-(1H-imidazol-1-yl)-6-methoxy-N-(2-(trifluoromethyl)pyridin-4-yl)pyrimidine-4-carboxamide] were, in that order, under 1 nM and under 1 nM.
`CCOc1cc(C(=O)Nc2ccnc(C(F)(F)F)c2)nc(-n2ccnc2)n1` [Compound 38]: the IC50 in experiment [1] and in experiment [2] was under 1 nM in each case.
Take `COCCOc1cc(C(=O)Nc2ccnc(C(F)(F)F)c2)nc(-n2ccnc2)n1` [Compound 39, 2-(1H-imidazol-1-yl)-6-(2-methoxyethoxy)-N-(2-(trifluoromethyl)pyridin-4-yl)pyrimidine-4-carboxamide]: the IC50 in experiment [1] and in experiment [2] was under 1 nM each time.
`O=C(Nc1ccnc(C(F)(F)F)c1)c1cc(OC2CC2)nc(-n2ccnc2)n1` [Compound 40]: the IC50 in experiment [1] is under 1 nM; in experiment [2], 1 to 50 nM.
For `Cn1cncc1-c1cccc(C(=O)Nc2cccnc2)n1` [Compound 42, 6-(1-methyl-1H-imidazol-5-yl)-N-(pyridin-3-yl)picolinamide], in that order: 1 to 50 nM and 1 to 50 nM.
For `Cn1cncc1-c1cccc(C(=O)Nc2ccc(C(F)(F)F)nc2)n1` [Compound 43], in that order: 1 to 50 nM and 1 to 50 nM.
For `Cc1cc(C(=O)Nc2ccncc2)nc(-c2nccn2C)c1` [Compound 45], in that order: under 1 nM and 1 to 50 nM.
Regarding `Cn1ccnc1-c1cccc(C(=O)Nc2ccc(C(F)(F)F)nc2)n1` [Compound 47], the IC50 in experiment [1] and in experiment [2] was 1 to 50 nM each time.
